Key:
TMD8 cells = test: Cell assay, in-vitro inhibition of TMD8 cells (CellTiter-Glo); type: cell-based; details: Homo sapiens, 2000 cells/well, 72 hrs, read-out: TMD8 (IC50, in-vitro inhibitory test on cells)
Method: (§1) Plating: The cells were suspended in serum-free medium and counted with automatic cell counter. According to the seeding density, the cell suspension was diluted to the required density. 95 μL cell (2000 cells/well) was added to each well, and incubated at 5% CO2 and 37° C.
(§2) Preparation of compound solution: The compound was prepared into a diluted solution of 1000× final concentration with dimethyl sulfoxide. The test concentrations of the compound were 10000, 3333.33, 1111.11, 370.37, 123.46, 41.15, 13.72, 4.57, 1.52, and 0.51 nM. The compound was diluted with the culture medium to prepare a compound solution of 20× final concentration. 5 uL of the compound solution was added to each well, and the same volume of dimethyl sulfoxide was added to the control well. The cells were incubated at 37° C. and 5% CO2 for 72 hrs.
(§3) Detection: The cell plate equilibrated to room temperature, 40 μl of CellTiter-Glo® reagent was added to each well, shaken for 2 min, allowed to stand for 10 min, and detected with SpectraMax Paradigm.
(§4) Data Analysis • (1) The IC50 value was calculated using GraphPad Prism 5. • (2) % Inh=(Max signal−Compound signal)/(Max signal−Min signal)×100. • (3) Max signal was a value of the positive control well in which only DMSO of the same volume with the compound solution was present. • (4) Min signal was a value of the negative control well in which only the culture medium was present.

[1] = test system: Ba/F3-BCR-BTK-C481S cells; test: Cell assay, in-vitro inhibition of Ba/F3-BCR-BTK-C481S cells (CellTiter-Glo); type: cell-based; details: 2000 cells/well, 72 hrs, read-out: Ba/F3-BCR-BTK-C481S (IC50, in-vitro inhibitory test on cells)
Method: as §1, §2, §3, §4

BTK kinase = BTK kinase (Homo sapiens, UniProt Q06187); test: Inhibitory activity test on BTK kinase (electrophoretic mobility shift assay); type: biochemical; details: Caliper EZ ReaderII, enzyme and compound 10 min at room temperature, read-out: BTK (IC50, in-vitro inhibitory test on kinase)
Sequence of BTK kinase (Q06187 whole entry): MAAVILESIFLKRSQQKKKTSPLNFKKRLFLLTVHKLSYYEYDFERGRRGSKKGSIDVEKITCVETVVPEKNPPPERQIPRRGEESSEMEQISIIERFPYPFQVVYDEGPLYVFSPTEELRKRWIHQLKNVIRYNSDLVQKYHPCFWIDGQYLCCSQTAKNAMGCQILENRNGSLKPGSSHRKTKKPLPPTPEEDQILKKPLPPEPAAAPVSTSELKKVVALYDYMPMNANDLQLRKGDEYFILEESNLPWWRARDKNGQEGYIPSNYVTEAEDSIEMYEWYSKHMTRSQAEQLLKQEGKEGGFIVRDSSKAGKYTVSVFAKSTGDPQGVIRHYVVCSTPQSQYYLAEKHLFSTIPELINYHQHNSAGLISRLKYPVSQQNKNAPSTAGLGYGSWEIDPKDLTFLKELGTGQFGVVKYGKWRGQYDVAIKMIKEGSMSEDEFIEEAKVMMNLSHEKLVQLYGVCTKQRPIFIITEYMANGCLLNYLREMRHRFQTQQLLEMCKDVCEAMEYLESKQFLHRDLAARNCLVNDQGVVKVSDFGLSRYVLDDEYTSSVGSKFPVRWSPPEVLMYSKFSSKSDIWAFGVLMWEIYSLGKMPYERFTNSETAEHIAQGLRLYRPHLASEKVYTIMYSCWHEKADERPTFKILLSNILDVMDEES

Row | IC50 [1] [nM] | IC50 (BTK kinase) [nM] | Compound | IC50 (TMD8 cells) [nM]
1 | 68.6 | – | CN[C@H]1CC[C@@H](Nc2ccnc3[nH]cc(C(=O)c4ccc(Oc5ccccc5)cc4Cl)c23)CC1 [Compound I-89] | 97.7
2 | 103 | – | CC(=O)N[C@H]1CC[C@@H](Nc2ccnc3[nH]cc(C(=O)c4ccc(Oc5ccccc5)cc4Cl)c23)CC1 [Compound I-87, N-((1s, 4s)-4-((3-(2-chloro-4-phenoxybenzoyl)-1H-pyrrolo[2,3-b]pyridin-4-yl)amino)cyclohexyl)acetamide] | 114
3 | – | 22 | CNC(=O)[C@H]1CC[C@H](Nc2ccnc3[nH]cc(C(=O)c4ccc(Oc5ccccc5)cc4Cl)c23)CC1 [Compound I-35, (1r, 4r)-4-((3-(2-chloro-4-phenoxybenzoyl)-1H-pyrrolo[2,3-b]pyridin-4-yl)amino)-N-methylcyclohexane-1-carboxamide] | –
4 | – | 95 | O=C(c1ccc(Oc2ccccc2)cc1Cl)c1c[nH]c2nccc(N[C@H]3CC[C@H](CO)CC3)c12 [Compound I-30, (2-chloro-4-phenoxyphenyl)(4-(((1r, 4r)-4-(hydroxymethyl)cyclohexyl)amino)-1H-pyrrolo[2,3-b]pyridin-3-yl)methanone] | –
5 | – | 11 | O=C(c1ccc(Oc2ccccc2)cc1Cl)c1c[nH]c2nccc(N[C@@H]3CC[C@@H](CO)OC3)c12 [Compound I-32, (2-chloro-4-phenoxyphenyl)(4-(((3R, 6S)-6-(hydroxymethyl)tetrahydro-2H-pyran-3-yl)amino)-1H-pyrrolo[2,3-b]pyridin-3-yl)methanone] | –
6 | 52 | 2.8 | N[C@H]1CC[C@@H](Nc2ccnc3[nH]cc(C(=O)c4ccc(Oc5ccccc5)cc4Cl)c23)CC1 [Compound I-74, (4-(((1s, 4s)-4-aminocyclohexyl)amino)-1H-pyrrolo[2,3-b]pyridin-3-yl)(2-chloro-4-phenoxyphenyl)methanone] | 65.9
7 | – | 9 | O=C(c1ccc(Oc2ccccc2)cc1Cl)c1c[nH]c2nccc(N[C@H]3CC[C@H](C(=O)O)CC3)c12 [Compound I-5, (1r, 4r)-4-((3-(2-chloro-4-phenoxybenzoyl)-1H-pyrrolo[2,3-b]pyridin-4-yl)amino)cyclohexane-1-carboxylic acid] | –
8 | – | 6.2 | O=C(c1ccc(Oc2ccccc2)cc1Cl)c1c[nH]c2nccc(N[C@H]3C[C@@H](C(=O)O)C3)c12 [Compound I-11, (1s, 3s)-3-((3-(2-chloro-4-phenoxybenzoyl)-1H-pyrrolo[2,3-b]pyridin-4-yl)amino)cyclobutane-1-carboxylic acid] | –
9 | – | 28 | O=C(c1ccc(Oc2ccccc2)cc1Cl)c1c[nH]c2nccc(N[C@H]3CC[C@@H](CO)CC3)c12 [Compound I-31, (2-chloro-4-phenoxyphenyl)(4-(((1s, 4s)-4-(hydroxymethyl)cyclohexyl)amino)-1H-pyrrolo[2,3-b]pyridin-3-yl)methanone] | –
10 | 447 | – | O=C(c1ccc(Oc2ccccc2)cc1Cl)c1c[nH]c2ncnc(N[C@@H]3CC[C@@H](CO)OC3)c12 [ARQ531, reference compound] | 111
11 | – | 141 | NS(=O)(=O)N1CCC(Nc2ccnc3[nH]cc(C(=O)c4ccc(Oc5ccccc5)cc4Cl)c23)CC1 [Compound I-37, 4-((3-(2-chloro-4-phenoxybenzoyl)-1H-pyrrolo[2,3-b]pyridin-4-yl)amino)piperidin-1-sulfonamide] | –
12 | – | 7.1 | O=C(c1ccc(Oc2ccccc2)cc1)c1c[nH]c2nccc(N[C@H]3CC[C@@H](C(=O)O)CC3)c12 [Compound I-8, (1s, 4s)-4-((3-(4-phenoxybenzoyl)-1H-pyrrolo[2,3-b]pyridin-4-yl)amino)cyclohexane-1-carboxylic acid] | –
13 | – | 9.5 | O=C(c1ccc(Oc2ccccc2)cc1Cl)c1c[nH]c2nccc(NC3CCNCC3)c12 [Compound I-22, (2-chloro-4-phenoxyphenyl)(4-(piperidin-4-ylamino)-1H-pyrrolo[2,3-b]pyridin-3-yl)methanone] | –
14 | – | 48 | O=C(c1ccc(Oc2ccccc2)cc1Cl)c1c[nH]c2nccc(N[C@@H]3CCCNC3)c12 [Compound I-23, (R)-(2-chloro-4-phenoxyphenyl)(4-(piperidin-3-ylamino)-1H-pyrrolo[2,3-b]pyridin-3-yl)methanone] | –
15 | – | 2.7 | O=C(c1ccc(Oc2ccccc2)cc1Cl)c1c[nH]c2nccc(N[C@H]3CC[C@@H](C(=O)O)CC3)c12 [Compound I-6, (1s, 4s)-4-((3-(2-chloro-4-phenoxybenzoyl)-1H-pyrrolo[2,3-b]pyridin-4-yl)amino)cyclohexane-1-carboxylic acid] | –
16 | – | 16 | N[C@H]1CC[C@H](Nc2ccnc3[nH]cc(C(=O)c4ccc(Oc5ccccc5)cc4Cl)c23)CC1 [Compound I-73, (4-(((1r, 4r)-4-aminocyclohexyl)amino)-1H-pyrrolo[2,3-b]pyridin-3-yl)(2-chloro-4-phenoxyphenyl)methanone] | –
17 | – | 242 | CS(=O)(=O)N1CCC(Nc2ccnc3[nH]cc(C(=O)c4ccc(Oc5ccccc5)cc4Cl)c23)CC1 [Compound I-38, (2-chloro-4-phenoxyphenyl)(4-((1-(methanesulfonyl)piperidin-4-yl)amino)-1H-pyrrolo[2,3-b]pyridin-3-yl)methanone] | –
18 | – | 52 | O=C(c1ccc(Oc2ccccc2)cc1Cl)c1c[nH]c2nccc(N[C@H]3CC[C@H](O)CC3)c12 [Compound I-24, (2-chloro-4-phenoxyphenyl)(4-(((1r, 4r)-4-hydroxycyclohexyl)amino)-1H-pyrrolo[2,3-b]pyridin-3-yl)methanone] | –
19 | – | 80 | O=C(c1ccc(Oc2ccccc2)cc1)c1c[nH]c2nccc(N[C@H]3CC[C@@H](CO)CC3)c12 [Compound I-33, (4-(((1s, 4s)-4-(hydroxymethyl)cyclohexyl)amino)-1H-pyrrolo[2,3-b]pyridin-3-yl)(4-phenoxyphenyl)methanone] | –
20 | – | 110 | O=C(c1ccc(Oc2ccccc2)cc1Cl)c1c[nH]c2nccc(NCCOCCO)c12 [Compound I-28, (2-chloro-4-phenoxyphenyl)(4-((2-(2-hydroxyethoxy)ethyl)amino)-1H-pyrrolo[2,3-b]pyridin-3-yl)methanone] | –

Reference: patent US20240018150A1
